Molecular target: T1, ROCK2 (Homo sapiens, UniProt O75116)
T1 construct: purchased Thermo Fisher Scientific (Life Technologies) SelectScreen
Experiment: SelectScreen Z'LYTE
Format: biochemical
How it was run: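 Percent values come from Thermo SelectScreen profiling of NU5455, combining activity and binding assays. CSF1R was run in Z'LYTE format at Km app ATP, and CAMK1 in Adapta format with ATP listed at 10.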

T1 sequence (O75116 whole entry): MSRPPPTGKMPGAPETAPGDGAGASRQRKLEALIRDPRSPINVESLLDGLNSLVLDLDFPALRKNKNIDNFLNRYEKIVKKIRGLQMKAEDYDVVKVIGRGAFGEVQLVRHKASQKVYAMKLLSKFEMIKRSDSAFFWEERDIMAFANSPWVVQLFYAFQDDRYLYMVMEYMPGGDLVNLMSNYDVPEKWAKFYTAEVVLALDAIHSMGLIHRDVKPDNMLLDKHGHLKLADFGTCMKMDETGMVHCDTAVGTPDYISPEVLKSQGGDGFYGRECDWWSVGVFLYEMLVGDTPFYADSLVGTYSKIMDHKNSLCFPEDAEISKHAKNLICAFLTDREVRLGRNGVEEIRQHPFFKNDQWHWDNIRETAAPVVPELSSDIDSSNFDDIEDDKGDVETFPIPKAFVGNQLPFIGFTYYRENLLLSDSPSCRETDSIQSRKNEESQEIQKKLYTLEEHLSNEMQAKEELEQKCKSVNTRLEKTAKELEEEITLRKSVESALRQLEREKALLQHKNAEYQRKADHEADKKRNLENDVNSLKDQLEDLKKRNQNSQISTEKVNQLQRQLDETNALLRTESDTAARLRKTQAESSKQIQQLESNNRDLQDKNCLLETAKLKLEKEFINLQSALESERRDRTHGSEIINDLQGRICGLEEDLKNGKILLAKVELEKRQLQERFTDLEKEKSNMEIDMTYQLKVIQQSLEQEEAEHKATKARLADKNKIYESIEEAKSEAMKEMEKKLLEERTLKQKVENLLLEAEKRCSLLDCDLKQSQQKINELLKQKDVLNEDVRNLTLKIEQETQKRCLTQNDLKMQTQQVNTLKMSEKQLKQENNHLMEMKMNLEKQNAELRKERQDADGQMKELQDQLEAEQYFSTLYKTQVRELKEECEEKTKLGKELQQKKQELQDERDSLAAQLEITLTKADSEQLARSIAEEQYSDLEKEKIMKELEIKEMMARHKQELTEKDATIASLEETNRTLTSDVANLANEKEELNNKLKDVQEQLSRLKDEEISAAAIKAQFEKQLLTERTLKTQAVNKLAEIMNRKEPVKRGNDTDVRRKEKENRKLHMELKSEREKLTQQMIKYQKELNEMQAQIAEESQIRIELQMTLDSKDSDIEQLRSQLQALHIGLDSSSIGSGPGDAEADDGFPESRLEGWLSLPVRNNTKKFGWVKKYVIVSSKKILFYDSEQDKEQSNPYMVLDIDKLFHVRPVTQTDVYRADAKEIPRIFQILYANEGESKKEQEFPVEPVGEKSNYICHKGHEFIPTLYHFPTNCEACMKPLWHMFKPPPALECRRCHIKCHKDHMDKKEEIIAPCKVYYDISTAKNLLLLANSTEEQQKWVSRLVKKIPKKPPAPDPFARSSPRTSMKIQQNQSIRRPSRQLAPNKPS

With CN(C(=O)CN1CCOCC1)c1ccc2sc3c(-c4cccc5c(=O)cc(N6CC7CCC(C6)O7)oc45)cccc3c2c1 [NU5455] the inhibition at 1 µM was -4.1%.
